Patent US5236955A, “Anti-fungal agent” (Washington University, priority 1992, dated 1993)

How the values were obtained:
[1] = test system: C. neoformans; test: Viability of C. neoformans (viable cells relative to EtOH control culture); type: cell-based, Cryptococcus neoformans; details: for fungicidal / fungistatic effect on C. neoformans: screening assay; for log reduction at 300 µM: relative to 0.1% EtOH control, read-out: decrease in viable cells (converted); for attenuation of fungicidal activity on shortening by one methylene: versus corresponding oxatetradecanoic acid, 300 μM
Experimental: (§1) Panel A, survey of the effects of several oxatetradecanoic acids on the growth of C. neoformans. A culture of C. neoformans was grown at 30° C. in SAB media to midlog phase (A600 ~0.5). A single dose of fatty acid was then added to subcultures (final concentration=300 μM). EtOH(0.1%) was used as a negative control. Amphotericin B (AmB) was added (final concentraton=55 μM) as a positive control. Aliquots were withdrawn from the subcultures 0, 0.5, 2, 4, 7, 21, and 24 h after these additions and then absorbance at 600 nm was measured. All assays were done in duplicate or triplicate. A representative test is shown. Panel B, survey of the effects of oxatetradecanoic acids, dioxatetradecanoic acids and oxatridecanoic acids on the viability of C. neoformans. Fatty acid analog was added to the cultures as in Panel A. Aliquots were withdrawn 0.5, 2, 4, 7 or 8, and 24 h later and plated on SAB-agar at various dilutions to determine the number of viable organisms/ml culture. All assays were done in duplicate. Data from a representative test are expressed as the ratio of viable cells in treated cultures relative to a control culture that received 0.1% EtOH. A positive control culture received a single dose of amphotericin B (55 μM); Panel C, dose-dependent reduction in the viability of C. neoformans after addition of 4-oxatetradecanoic acid (O4) to cultures during log-phase growth at 30° C. in SAB. A single dose of the analog was given at T=0 h in the amount indicated and aliquots of the culture were withdrawn at various times to determine the number of viable cells. All assays were done in triplicate. A representative test is shown.
(§2) Saccharomyces cerevisiae strain YM2061 (MATa ura3-52 his3Δ200 ade2-101 lys2-801 met LEU2::pRY181 can1; Flick and Johnston, Mol. Cell. Biol. 10, 4757-4769 (1990), Candida albicans strain B311 (obtained from the American Type Tissue Culture, Rockville, Md.), or Cryptococcus neoformans strain L210425 (a clinical isolate that is part of the permanent culture collection of the Mycology Laboratory, Barnes Hospital, St. Louis, Mo.) were grown overnight at 30 C. The S. cerevisiae strain was incubated in YPD medium (1% bacto-yeast extract, Gibco, Long Island, N.Y.), 2% bacto-peptone (Gibco), 2% dextrose). The C. albicans and C. neoformans strains were grown in Sabouraud's media (SAB; 2% (w/v) dextrose, 1% bacto-peptone). The following morning the cultures were diluted into fresh medium to the desired density at 600 nm (early log phase), and subsequently incubated in a rotary shaker at 30° C. until an A600 =0.5 (mid log phase) was achieved. The culture was then divided into 10 ml aliquots. A single 10 μl aliquot of a stock solution of fatty acid analog (prepared in various concentrations using absolute ethanol) was added to the culture so that the final concentration of the compound was 100-500 μM (T=0). Ten microliters of ethanol alone was added to one 10 ml culture which served as the negative control. Amphotericin B (AmB; in the form of Fungizone, Squibb) was added (final concentration=55 μM) to another culture which served as the positive control. At T=0 and 0.5-24 h after addition of fatty acid analog to the subcultures, an aliquot was removed for determining the density of the subculture at 600 nm. Cell viability was determined at each of these time points by (i) serially diluting the aliquot in 0.15M NaCl and counting cell number in a hemocytometer and (ii) plating 2-3 of the dilutions in triplicate onto plates of SAB/agar (C. albicans and C. neoformans) or YPD/agar (S. cerevisiae). These plates were subsequently incubated at 30° C. for 24-48 hr to allow for the growth of colonies. The data were expressed as the ratio of viable cells/ml in the fatty acid analog treated subculture to the number of viable cells/ml in the negative (ethanol) control culture.

[2] = target: T1, C. albicans NMT (Candida albicans, UniProt P30418); test: In vitro discontinuous NMT assay; type: biochemical; details: 40 μM fatty acid, HIV-1 Pr55gag octapeptide
T1 construct: made in house; host or cells: E. coli
Experimental: (§3) Details of the single point, discontinuous, in vitro NMT assay are described in Examples, below. A tritiated octapeptide derived from residues 2-9 of […] HIV-I Pr55^gag (GARA[^3 H]SVLS-NH2) was used in all assays. The amount of analogpeptide produced is expressed as a percentage of myristoylpeptide generated in a control incubation. All assays were performed in triplicate. The mean ±1 standard deviation is shown. Under the assay conditions employed, the amount of myristoylpeptide generated by purified E. coli-derived S. cerevisiae NMT ranged from 5×10^5 to 2×10^6 pmol/mg enzyme/min while the amount of myristolypeptide produced by purified E. coli-derived, C. albicans NMT ranged from 4×10^5 to 1.5×10^6 pmol/mg enzyme/mni.
(§4) In vitro discontinuous NMT assay--This assay was carried out by conventional procedures as described by Duronio et al., Methods: A Companion to Methods in Enzymol. 1, 253-263 (1990); Kishore et al., J. Biol. Chem. 266, 8835-8853 (1991). Briefly, a single point assay was performed by first converting myristic acid or a fatty acid analog (final concentration=40 μM) to its CoA thioester using Pseudomonas acylCoA synthetase (EC 6.2.1.3, Sigma Chemical Co.). Following a 25 min incubation at 30° C., purified E. coli derived S. cerevisiae or C. albicans NMT [Rudnick et al., Ibid. 265, 13370-13378 (1990); Wiegand et al., J. Biol. Chem. 267, 8591-8598 (1992)], final concentration=0.1 μg/ml, was added to the reaction mixture together with a tritiated peptide substrate derived from residues 2-9 of the HIV-1 Pr55^gag (Gly-Ala-Arg-[^3 H]Ala-Ser-Val-Leu-Ser-NH2) [Kishore et al., supra (1991); specific activity=1.2 Ci/mmol; final concentration=23 μM]. After an additional 10 min incubation at 30° C., the enzymatically generated, radiolabeled acylpeptide was purified by reverse phase HPLC and quantitated using an in-line scintillation counter [Kishore et al., supra, (1991)]. The amount of analogpeptide formed was expressed as a percentage of the amount of myristoylpeptide formed in a parallel reference assay. All assays were performed in duplicate or triplicate.
(§5) In vitro studies of purified S. cerevisiae and C. albicans NMT reveal differences in the kinetic properties of oxatetradecanoic and oxatridecanoic acid analogs--To begin to understand the mechanism which underlies the fungicidal activities of some but not all of the oxygen containing fatty acid analogs, the relative activities of the sixteen oxatri-, oxatetradecanoic acids and dioxatetradecanoic acids were examined in an in vitro assay. The two step assay measures NMT-dependent transfer of the acyl chain from an enzymatically generated acylCoA to a radiolabeled peptide substrate. […]

[3] = target: T2, S. cerevisiae NMT (Saccharomyces cerevisiae, UniProt P14743); test: In vitro discontinuous NMT assay; type: biochemical; details: 40 μM fatty acid, HIV-1 Pr55gag octapeptide
T2 construct: made in house; host or cells: E. coli
Experimental: as §3, §4, §5

[4] = test system: C. albicans; test: Viability of C. albicans; type: cell-based; details: Candida albicans
Experimental: (§6) Oxatetradecanoic acids were added (final concentraton=25-500 μM) as a single dose to log phase cultures of C. alibcans grown in SAB at 30° C. (Panels A and B) and to log phase cultures of S. cerevisiae grown in YPD at 30° C. (Panels C and D). The results were compared to the number of viable organisms present in cultures treated with 0.1% EtOH alone. […] A single does of alphotericin B (final concentration=55 μM) was added to parallel cultures which served as positive controls. Assays were done in duplicate. Representative tests are shown.
as §2

[5] = test system: S. cerevisiae; test: Viability of S. cerevisiae; type: cell-based; details: Saccharomyces cerevisiae
Experimental: as §6, §2

[6] = test system: C. neoformans; test: Growth of C. neoformans cultures (absorbance at 600 nm); type: cell-based, Cryptococcus neoformans
Experimental: as §1
as §2, with “Amphotericin B (AmB; in the form of Fungizone, Squibb) was added (final concentration=55 μM) to another culture which served as the positive control. At T=0 and 0.5-24 h after addition of fatty acid analog to the subcultures, an aliquot was removed for determining the density of the subculture at 600 nm.” left out, “These plates were subsequently incubated at 30° C. for 24-48 hr to allow for the growth of colonies.” left out, “culture. […]” for “culture.”

[7] = Cryptococcus neoformans, 300 μM single dose

T2 sequence (P14743 whole entry): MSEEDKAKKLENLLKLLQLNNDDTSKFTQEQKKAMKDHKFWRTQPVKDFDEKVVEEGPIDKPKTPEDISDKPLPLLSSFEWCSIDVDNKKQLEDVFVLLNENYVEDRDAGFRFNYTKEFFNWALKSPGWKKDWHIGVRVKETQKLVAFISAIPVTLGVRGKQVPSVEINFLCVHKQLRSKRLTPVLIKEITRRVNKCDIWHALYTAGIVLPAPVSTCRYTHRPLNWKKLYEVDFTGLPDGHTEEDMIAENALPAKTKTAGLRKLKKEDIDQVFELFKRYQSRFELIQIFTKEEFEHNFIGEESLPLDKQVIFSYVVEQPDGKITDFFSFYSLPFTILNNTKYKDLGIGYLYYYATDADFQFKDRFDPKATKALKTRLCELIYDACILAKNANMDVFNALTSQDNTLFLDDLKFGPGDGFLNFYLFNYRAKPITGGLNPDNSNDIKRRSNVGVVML
T1 sequence (P30418 whole entry): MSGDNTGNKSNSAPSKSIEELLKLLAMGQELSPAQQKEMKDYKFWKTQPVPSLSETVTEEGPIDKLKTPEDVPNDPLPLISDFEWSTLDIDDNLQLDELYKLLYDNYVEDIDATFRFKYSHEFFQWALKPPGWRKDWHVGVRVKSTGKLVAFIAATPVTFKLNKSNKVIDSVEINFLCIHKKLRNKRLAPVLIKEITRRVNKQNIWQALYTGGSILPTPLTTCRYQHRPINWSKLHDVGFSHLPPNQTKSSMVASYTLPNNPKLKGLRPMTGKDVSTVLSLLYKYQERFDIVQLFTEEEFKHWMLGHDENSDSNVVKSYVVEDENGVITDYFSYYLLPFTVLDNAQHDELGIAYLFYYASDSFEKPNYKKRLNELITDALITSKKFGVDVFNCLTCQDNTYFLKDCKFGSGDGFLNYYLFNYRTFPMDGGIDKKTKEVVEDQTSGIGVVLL

CCOCCCCCCCCCCC(=O)O [O12]
fungicidal / fungistatic effect on C. neoformans ([1]; 300 μM single dose): no measurable effect on the growth

CCCCOCCCCCCCCC(=O)O [O10]
fungicidal / fungistatic effect on C. neoformans ([1]; 300 μM single dose): no measurable effect on the growth

CCCCCCCCCCCOCC(=O)SCCNC(=O)CCNC(=O)[C@H](O)C(C)(C)COP(=O)(O)OP(=O)(O)OC[C@H]1O[C@@H](n2cnc3c(N)ncnc32)[C@H](O)[C@@H]1OP(=O)(O)O [3-oxatetradecanoylCoA]
activity of analogCoA relative to myristoylCoA [2]: equivalent to myristate | activity of analogCoA relative to myristoylCoA [3]: equivalent to myristate

CCCCCCCCCOCCCC(=O)O [O5, 5-oxatetradecanoic acid]
fungicidal / fungistatic effect on C. neoformans ([1]; 300 μM single dose): fungicidal | log reduction at 300 µM [1, 7]: 3 | log reduction at 300 µM ([4]; 300 μM, 2 hr after addition, read-out: reductions in the number of viable C. albicans): < 0.699 | log reduction at 500 µM ([4]; 500 μM, read-out: reduction in the number of viable organisms (C. albicans)): 1 to 2 | log reduction at 300 µM ([5]; 300 μM, 2 hr after addition, read-out: reductions in the number of viable S. cerevisiae): < 0.699 | log reduction at 500 µM ([5]; 500 μM, read-out: reduction in the number of viable organisms (S. cerevisiae)): 1 to 2

COCCCCCCCOCCCC(=O)O [5,13 dioxatetradecanoic acid, 5,13-Dioxatetradecanoic acid]
fungicidal / fungistatic effect on C. neoformans ([1]; 300 μM single dose): did not convert O13 to an active analog

CCCCCCCOCCCCCC(=O)O [O7]
fungicidal / fungistatic effect on C. neoformans ([1]; 300 μM single dose): no measurable effect on the growth

COCCCCCCCCOCCC(=O)O [4,13 dioxatetradecanoic acid, 4,13-Dioxatetradecanoic acid]
fungicidal / fungistatic effect on C. neoformans ([1]; 300 μM single dose): did not convert O13 to an active analog

CCCOCCCCCCCCCC(=O)O [O11, 11-Oxatetradecanoic acid]
fungicidal / fungistatic effect on C. neoformans ([1]; 300 μM single dose): no measurable effect on the growth | effect on growth of C. neoformans, as determined by optical density ([6]; single 300 μM dose, exponential phase, 30° C., SAB, up to 24 h): virtually no effect on growth

CCCCCCCCCCOCCC(=O)SCCNC(=O)CCNC(=O)[C@H](O)C(C)(C)COP(=O)(O)OP(=O)(O)OC[C@H]1O[C@@H](n2cnc3c(N)ncnc32)[C@H](O)[C@@H]1OP(=O)(O)O [4-oxatetradecanoylCoA]
activity of analogCoA relative to myristoylCoA [2]: -3 fold | activity of analogCoA relative to myristoylCoA [3]: -3 fold

C[C@@H]1[C@H](O)[C@@H](C)/C=C/C=C/C=C/C=C/C=C/C=C/C=C/[C@H](O[C@@H]2O[C@H](C)[C@@H](O)[C@H](N)[C@@H]2O)C[C@@H]2O[C@](O)(C[C@@H](O)C[C@@H](O)[C@H](O)CC[C@@H](O)C[C@@H](O)CC(=O)O[C@H]1C)C[C@H](O)[C@H]2C(=O)O [Amphotericin B, reference compound]
log reduction at 55 µM ([1]; Cryptococcus neoformans, read-out: reduction in viable cell number): 6 | effect on growth of C. neoformans, as determined by optical density ([6]; 55 μM, positive control): growth arrest

CCCCCCCCOCCCC(=O)O [5-oxatridecanoic acid, 5-Oxatridecanoic acid]
fungicidal / fungistatic effect on C. neoformans ([1]; 300 μM single dose): not active | attenuation of fungicidal activity on shortening by one methylene [1]: 10 fold

CCCCCCOCCCCCCC(=O)O [O8]
fungicidal / fungistatic effect on C. neoformans ([1]; 300 μM single dose): no measurable effect on the growth

CCCCCCCCCOCCC(=O)O [4-oxatridecanoic acid, 4-Oxatridecanoic acid]
time needed to produce the decrease in viable cells ([1]; 300 μM single dose): 6 to 7 h | log reduction at 300 µM [1, 7]: 3 | attenuation of fungicidal activity on shortening by one methylene [1]: 10 fold
